According to ChEMBL document CHEMBL3232704, “Discovery of mixed type thymidine phosphorylase inhibitors endowed with antiangiogenic properties: synthesis, pharmacological evaluation and molecular docking study of 2-thioxo-pyrazolo[1,5-a][1,3,5]triazin-4-ones. Part II” (Eur J Med Chem, 2014):

Assay: Cytotoxicity against human MDA-MB-231 cells assessed as cell viability at 25 to 100 uM after 72 hrs by MTT assay relative to control
Assay type: cell-based
Conditions: read-out: Activity

Row | SMILES | viability at 72 h, up to 100 µM [%]
1 | O=c1[nH]c(=S)[nH]c2cc(-c3ccc(Cl)c(Cl)c3)nn12 | 80
2 | NC(=S)Nc1nn2c(=O)[nH]c(=S)[nH]c2c1Cc1ccc(C(F)(F)F)cc1 | 80
3 | NC(=S)Nc1nn2c(=O)[nH]c(=S)[nH]c2c1Cc1ccc(-c2ccccc2)cc1 | 80
4 | NC(=S)Nc1nn2c(=O)[nH]c(=S)[nH]c2c1Cc1ccc(Oc2ccccc2)cc1 | 80
5 | NC(=S)Nc1nn2c(=O)[nH]c(=S)[nH]c2c1Cc1cccc2ccccc12 | 80
6 | O=c1[nH]c(=O)c2cc[nH]c2[nH]1 [7-DEAZAXANTHINE] | 80
